Patent US8758816B2, “Compositions comprising azelastine and methods of use thereof” (priority 2004, dated 2014)

Tested on: patients with seasonal allergic rhinitis (SAR)
Experiment: MP 428 two-week randomized double-blind study: Total Nasal Symptom Score (TNSS), change from baseline
Type: in vivo, human
Parameters: key to Change from Baseline in AM TNSS, Mean / Change from Baseline in AM TNSS, LS Mean / Change from Baseline in AM TNSS, Median: TNSS sum of 4 symptoms each 0-3 (0=none, 3=severe); change from baseline
Description: A two-week, randomized, double-blind study, which evaluated the effects of the co-administration of ASTELIN® (azelastine hydrochloride (HCl)) and FLONASE® (fluticasone propionate) compared to either product alone in patients with seasonal allergic rhinitis (SAR) was conducted during the 2006 Texas mountain cedar season. After a 5-day placebo lead-in period, 151 patients with moderate-to-severe allergic rhinitis symptoms were randomized to either: (1) (49 total patients) ASTELIN® (azelastine hydrochloride (HCl)) plus placebo saline nasal spray 2 sprays per nostril, 15 minutes apart, twice daily (AM & PM); (2) (50 total patients) FLONASE® (fluticasone propionate) plus placebo saline nasal spray, 2 sprays per nostril, 15 minutes apart, once daily (AM) and two sessions of placebo saline nasal spray, 2 sprays per nostril, 15 minutes apart (PM); or (3) (52 total patients) the co-administration of ASTELIN® (azelastine hydrochloride (HCl)) 2 sprays per nostril plus FLONASE® (fluticasone propionate) 2 sprays per nostril (AM), 15 minutes apart, and ASTELIN® (azelastine hydrochloride (HCl)) 2 sprays per nostril plus placebo saline nasal spray, 15 minutes apart, (PM) for a 2-week double-blind treatment period.
The primary efficacy variable was the change from baseline in the Total Nasal Symptom Score (TNSS), which comprised sneezing, itchy nose, runny nose, and nasal congestion (individual symptoms scores were assigned a value between 0 and 3, where 0=no symptoms and 3=severe symptoms). This study was not statistically designed to assess the differences between ASTELIN® and FLONASE®.

[1] = Day 2, Intent-to-Treat Population
[2] = Day 3, Intent-to-Treat Population
[3] = Day 4, Intent-to-Treat Population
[4] = Day 5, Intent-to-Treat Population

## CCC(=O)O[C@]1(C(=O)SCF)[C@H](C)C[C@H]2[C@@H]3C[C@H](F)C4=CC(=O)C=C[C@]4(C)[C@@]3(F)[C@@H](O)C[C@@]21C [Fluticasone, fluticasone propionate]
All Randomized Patients
  Primary Reason for Discontinuation From Study: Treatment Failure: 1 (2.0) N (%)
[1]
  Change from Baseline in AM TNSS, LS Mean: −1.58
  Change from Baseline in AM TNSS, Mean: −1.65
  Change from Baseline in AM TNSS, Median: −1.00
  Change from Baseline in AM and PM Combined TNSS, Mean: −3.24
  Change from Baseline in AM and PM Combined TNSS, Median: −2.00
  Change from Baseline in PM TNSS, LS Mean: −1.54
  Change from Baseline in PM TNSS, Mean: −1.59
  Change from Baseline in PM TNSS, Median: −1.00
  Percent Change from Baseline in AM TNSS, LS Mean: −16.43%
  Percent Change from Baseline in AM TNSS, Mean: −17.21%
  Percent Change from Baseline in AM TNSS, Median: −11.11%
  Percent Change from Baseline in AM and PM Combined TNSS, LS Mean: −16.35%
  Percent Change from Baseline in AM and PM Combined TNSS, Mean: −16.91%
  Percent Change from Baseline in AM and PM Combined TNSS, Median: −12.46%
  Percent Change from Baseline in PM TNSS, LS Mean: −16.05%
  Percent Change from Baseline in PM TNSS, Mean: −16.52%
  Percent Change from Baseline in PM TNSS, Median: −11.11%
Day 2, Intent-to-Treat Population, ANCOVA model
  Change from Baseline in AM and PM Combined TNSS, LS Mean: −3.12
Day 2, Per-Protocol Population
  Change from Baseline in AM and PM Combined TNSS, LS Mean: −3.10
  Change from Baseline in AM and PM Combined TNSS, Mean: −3.27
  Change from Baseline in AM and PM Combined TNSS, Median: −2.00
  Percent Change from Baseline in AM and PM Combined TNSS, LS Mean: −16.38%
  Percent Change from Baseline in AM and PM Combined TNSS, Mean: −17.11%
  Percent Change from Baseline in AM and PM Combined TNSS, Median: −12.46%
[2]
  Change from Baseline in AM TNSS, LS Mean: −2.01
  Change from Baseline in AM TNSS, Mean: −2.04
  Change from Baseline in AM TNSS, Median: −1.50
  Change from Baseline in AM and PM Combined TNSS, Mean: −4.12
  Change from Baseline in AM and PM Combined TNSS, Median: −3.20
  Change from Baseline in PM TNSS, LS Mean: −2.08
  Change from Baseline in PM TNSS, Mean: −2.08
  Change from Baseline in PM TNSS, Median: −1.80
  Percent Change from Baseline in AM TNSS, LS Mean: −21.72%
  Percent Change from Baseline in AM TNSS, Mean: −22.09%
  Percent Change from Baseline in AM TNSS, Median: −14.29%
  Percent Change from Baseline in AM and PM Combined TNSS, LS Mean: −22.17%
  Percent Change from Baseline in AM and PM Combined TNSS, Mean: −22.26%
  Percent Change from Baseline in AM and PM Combined TNSS, Median: −16.67%
  Percent Change from Baseline in PM TNSS, LS Mean: −22.22%
  Percent Change from Baseline in PM TNSS, Mean: −22.28%
  Percent Change from Baseline in PM TNSS, Median: −20.00%
Day 3, Intent-to-Treat Population, ANCOVA model
  Change from Baseline in AM and PM Combined TNSS, LS Mean: −4.09
Day 3, Per-Protocol Population
  Change from Baseline in AM and PM Combined TNSS, LS Mean: −4.18
  Change from Baseline in AM and PM Combined TNSS, Mean: −4.25
  Change from Baseline in AM and PM Combined TNSS, Median: −3.47
  Percent Change from Baseline in AM and PM Combined TNSS, LS Mean: −22.68%
  Percent Change from Baseline in AM and PM Combined TNSS, Mean: −22.87%
  Percent Change from Baseline in AM and PM Combined TNSS, Median: −16.67%
[3]
  Change from Baseline in AM TNSS, LS Mean: −2.43
  Change from Baseline in AM TNSS, Mean: −2.41
  Change from Baseline in AM TNSS, Median: −2.67
  Change from Baseline in AM and PM Combined TNSS, Mean: −4.53
  Change from Baseline in AM and PM Combined TNSS, Median: −4.17
  Change from Baseline in PM TNSS, LS Mean: −2.10
  Change from Baseline in PM TNSS, Mean: −2.12
  Change from Baseline in PM TNSS, Median: −1.80
  Percent Change from Baseline in AM TNSS, LS Mean: −25.32%
  Percent Change from Baseline in AM TNSS, Mean: −25.07%
  Percent Change from Baseline in AM TNSS, Median: −27.27%
  Percent Change from Baseline in AM and PM Combined TNSS, LS Mean: −23.75%
  Percent Change from Baseline in AM and PM Combined TNSS, Mean: −23.67%
  Percent Change from Baseline in AM and PM Combined TNSS, Median: −23.60%
  Percent Change from Baseline in PM TNSS, LS Mean: −21.91%
  Percent Change from Baseline in PM TNSS, Mean: −22.22%
  Percent Change from Baseline in PM TNSS, Median: −20.00%
Day 4, Intent-to-Treat Population, ANCOVA model
  Change from Baseline in AM and PM Combined TNSS, LS Mean: −4.53
Day 4, Per-Protocol Population
  Change from Baseline in AM and PM Combined TNSS, LS Mean: −4.61
  Change from Baseline in AM and PM Combined TNSS, Mean: −4.63
  Change from Baseline in AM and PM Combined TNSS, Median: −4.17
  Percent Change from Baseline in AM and PM Combined TNSS, LS Mean: −24.10%
  Percent Change from Baseline in AM and PM Combined TNSS, Mean: −24.08%
  Percent Change from Baseline in AM and PM Combined TNSS, Median: −23.60%
[4]
  Change from Baseline in AM TNSS, LS Mean: −2.59
  Change from Baseline in AM TNSS, Mean: −2.57
  Change from Baseline in AM TNSS, Median: −2.00
  Change from Baseline in AM and PM Combined TNSS, Mean: −5.16
  Change from Baseline in AM and PM Combined TNSS, Median: −4.40
  Change from Baseline in PM TNSS, LS Mean: −2.61
  Change from Baseline in PM TNSS, Mean: −2.59
  Change from Baseline in PM TNSS, Median: −2.00
  Percent Change from Baseline in AM TNSS, LS Mean: −26.91%
  Percent Change from Baseline in AM TNSS, Mean: −26.62%
  Percent Change from Baseline in AM TNSS, Median: −19.23%
  Percent Change from Baseline in AM and PM Combined TNSS, LS Mean: −27.20%
